According to patent US8178577B2, “Tricyclic derivatives as potent and selective histone deacetylase inhibitors” (Shenzhen Chipscreen Biosciences Ltd., priority 2008, dated 2012):

Assays:
HDAC Class I = test: P21 reporter gene assay in HeLa cells; format: cell-based; settings: relative to SAHA, 24 hours
Description: HDAC subtype selectivity inhibition assay of tested compounds was carried out by several reporter gene assays experiments. Briefly, HeLa cells were seeded in 96-well plates the day before transfection to give a confluence of 50-80%. Cells were transfected with one of reporter gene plasmids containing a promoter sequences or response elements upstream of a luciferase gene construct using FuGene6 transfection reagent according to the manufacturer's instructions (Roche). The promoter or response elements including p21-promoter, gdf11-promoter, serum response element (SRE), MEF-binding element were fused upstream to the luciferase gene reporter construct. For normalizing the transfection efficiency, a GFP expression plasmid was cotransfected. Cells were allowed to express protein for 24 hours followed by addition of individual compounds or the vehicle (DMSO). 24 hours later the cells were harvested, and the luciferase assays were performed using the luciferase assay kit according to the manufacturer's instructions (Promega). To normalize the data from the luciferase assays, β-galactosidase activity from transfected cells was measured using a kit (Promega) as instructed by the manufacturer.

[1] = biological target: T1, (Homo sapiens, UniProt Q9UBN7); test: Cytoblot assay of acetylation of α-tubulin in A549 cells; format: cell-based; settings: 24 hours
T1 construct: endogenous in cells; host or cells: A549
T1 sequence (Q9UBN7 1-1215): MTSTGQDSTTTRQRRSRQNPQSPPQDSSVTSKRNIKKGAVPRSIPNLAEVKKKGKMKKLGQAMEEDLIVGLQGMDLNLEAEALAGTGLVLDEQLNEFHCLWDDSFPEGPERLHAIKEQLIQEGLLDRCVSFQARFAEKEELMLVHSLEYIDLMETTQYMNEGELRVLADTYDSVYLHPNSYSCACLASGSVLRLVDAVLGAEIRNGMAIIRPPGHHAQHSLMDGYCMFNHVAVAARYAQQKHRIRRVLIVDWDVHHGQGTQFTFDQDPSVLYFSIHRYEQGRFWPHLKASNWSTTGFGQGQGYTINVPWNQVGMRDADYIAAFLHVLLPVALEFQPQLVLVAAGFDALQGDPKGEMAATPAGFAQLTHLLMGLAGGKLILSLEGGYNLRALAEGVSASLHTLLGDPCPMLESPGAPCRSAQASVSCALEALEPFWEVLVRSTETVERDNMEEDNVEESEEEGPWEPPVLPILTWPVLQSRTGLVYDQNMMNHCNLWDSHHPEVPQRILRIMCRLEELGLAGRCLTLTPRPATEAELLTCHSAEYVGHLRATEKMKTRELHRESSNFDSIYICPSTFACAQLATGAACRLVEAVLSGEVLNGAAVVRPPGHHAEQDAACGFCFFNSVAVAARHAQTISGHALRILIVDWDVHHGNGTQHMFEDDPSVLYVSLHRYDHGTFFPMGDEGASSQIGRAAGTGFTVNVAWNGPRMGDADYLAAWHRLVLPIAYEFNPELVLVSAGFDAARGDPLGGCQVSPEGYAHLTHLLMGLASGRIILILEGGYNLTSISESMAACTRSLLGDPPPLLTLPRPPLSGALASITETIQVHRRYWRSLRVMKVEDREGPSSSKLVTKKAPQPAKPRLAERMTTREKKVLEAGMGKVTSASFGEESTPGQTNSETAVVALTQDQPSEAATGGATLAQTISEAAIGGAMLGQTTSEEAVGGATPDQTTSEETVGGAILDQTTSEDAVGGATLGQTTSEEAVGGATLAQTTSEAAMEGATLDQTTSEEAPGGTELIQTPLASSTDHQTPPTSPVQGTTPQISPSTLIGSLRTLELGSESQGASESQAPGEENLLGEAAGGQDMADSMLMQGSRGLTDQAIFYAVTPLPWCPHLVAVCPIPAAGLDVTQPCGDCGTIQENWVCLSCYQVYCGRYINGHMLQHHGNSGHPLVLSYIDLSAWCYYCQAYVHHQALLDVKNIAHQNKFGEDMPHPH
Description: This assay is used to measure in vivo inhibition of HDAC6 in a cytoblot assay.
• 1. […] Compounds were added and incubated for 24 hours at 37° C. • 3.

Row | Fold of tubulin acetylation (HDAC7 at 10 μM) [1] [Fold] | Compound | % of SAHA Response for HDAC Class I at 10 μM (P21 reporter gene) (HDAC Class I) [%]
1 | 0.79 | Nc1cc(F)ccc1NC(=O)CCCCCNC(=O)C=C1c2ccccc2-c2ccccc21 [Example 12, 6-(2-(9H-fluoren-9-ylidene)acetamido)-N-(2-amino-4-fluorophenyl)hexanamide] | 39
2 | 0.74 | Nc1ccccc1NC(=O)CCCCCNC(=O)C=C1c2ccccc2-c2ccccc21 [Example 13, 6-(2-(9H-fluoren-9-ylidene)acetamido)-N-(2-aminophenyl)hexanamide] | 133
